The values below come from EPA's ToxRefDB 2.

Data set [1] concerns dog. As to conditions: Chronic toxicity, beagle, Oral, Feed, dose end: 104 week, group: systemic.
Data set [2] relates to rat. As to conditions: Prenatal developmental toxicity study, sprague dawley, Oral, Gavage/Intubation, dose end: 20 GD.
In data set [3] the test system is rat. As to conditions: Multigenerational reproductive toxicity study, sprague dawley, Oral, [Not Specified], dose end: 2 generation.
Data set [4] deals with rat. As to conditions: Prenatal developmental toxicity study, sprague dawley, Oral, Gavage/Intubation, dose end: 15 GD.
Data set [5] has as its system rabbit. As to conditions: Prenatal developmental toxicity study, new zealand white, Oral, Gavage/Intubation, dose end: 19 GD.
Data set [6] concerns rat. As to conditions: Multigenerational reproductive toxicity study, other, Oral, Feed, dose end: 2 generation.
The test system of data set [7] is dog. As to conditions: Chronic toxicity; beagle; Oral; Feed; dose end: 52 week; group: systemic; systemic / hematology / anemia / anemia - hemolytic + systemic / hematology / platelet / platelet + systemic / in life observation / body ….
Data set [8] has as its system mouse. As to conditions: Carcinogenicity; cd1; Oral; Feed; dose end: 78 week; group: systemic; systemic / in life observation / body weight / body weight gain + systemic / organ weight / liver / relative to body weight + systemic / ….
Data set [9] deals with rat. As to conditions: Combined chronic toxicity/carcinogenicity, sprague dawley, Oral, [Not Specified], dose end: 104 week, group: systemic.
Data set [10] concerns rat. As to conditions: Peri- and post-natal toxicity study (Segment III); long evans; Injection; Subcutaneous; dose end: 3 PND; group: developmental; developmental / developmental landmark / vaginal opening / vaginal opening.
Data set [11] relates to dog. As to conditions: Chronic toxicity; beagle; Oral; Feed; dose end: 1 year; group: systemic; systemic / pathology microscopic / skeletal muscle / degeneration + systemic / pathology microscopic / skeletal muscle / infiltration ….
The subject of data set [12] is rabbit. As to conditions: Prenatal developmental toxicity study, new zealand white, Oral, Gavage/Intubation, dose end: 19 GD. The source holds these as a separate data set.
In data set [13] the test system is rat. As to conditions: Carcinogenicity, fischer, Oral, Water, dose end: 103 week, group: systemic.
The subject of data set [14] is mouse. As to conditions: Carcinogenicity, b6c3f1, Oral, Water, dose end: 103 week, group: systemic.
Data set [15] has as its system mouse. As to conditions: Prenatal developmental toxicity study, cd1, Oral, Gavage/Intubation, dose end: 15 GD.
Data set [16] deals with rat. As to conditions: Multigenerational reproductive toxicity study, sprague dawley, Oral, Water, dose end: 2 generation.
[17] abbreviates: systemic / clinical chemistry / alkaline phosphatase (alp/alk) / alkaline phosphatase (alp/alk) + systemic / organ weight / liver / absolute….
Where [18] appears, read: systemic / pathology microscopic / spleen / hemosiderosis.
[19] abbreviates: group: developmental, developmental / developmental malformation / bone / misaligned + developmental / developmental malformation / mouth / jaw / protruding ….
The mark [20] stands for this setting: group: maternal, systemic / in life observation / body weight / body weight gain + systemic / in life observation / food consumption / food consumption.
[21] abbreviates: group: maternal, systemic / in life observation / body weight / body weight gain + systemic / in life observation / food consumption / food consumption + ….
[22] abbreviates: group: offspring, systemic / in life observation / body weight / offspring (pup) weight.
The mark [23] stands for this setting: group: parental, systemic / in life observation / body weight / body weight + systemic / in life observation / clinical signs / [other] + systemic / in life ….
Where [24] appears, read: group: reproductive, reproductive / reproductive performance / gestational length / gestational length.
The mark [25] stands for this setting: group: developmental, developmental / developmental malformation / bone / delayed ossification + systemic / in life observation / body weight / fetal weight.
Where [26] appears, read: group: developmental, developmental / developmental malformation / bone / delayed ossification + systemic / in life observation / body weight / fetal weight + ….
Where [27] appears, read: group: maternal, systemic / in life observation / body weight / body weight + systemic / in life observation / body weight / body weight gain + systemic / in….
The mark [28] stands for this setting: group: developmental, developmental / developmental malformation / bone / supernumerary.
The mark [29] stands for this setting: group: maternal, systemic / in life observation / body weight / body weight gain + systemic / in life observation / clinical signs / defecation + systemic / ….
Setting [30] is: group: offspring, developmental / offspring survival late / viability index / viability index.
Setting [31] is: group: offspring, developmental / offspring survival late / viability index / viability index + systemic / in life observation / body weight / offspring (pup….
Where [32] appears, read: group: parental, systemic / organ weight / liver / absolute + systemic / organ weight / liver / relative to body weight + systemic / pathology microscopic / ….
Setting [33] is: systemic / pathology gross / eye / discolored + systemic / pathology microscopic / eye / inflammation + systemic / pathology microscopic / ….
Where [34] appears, read: group: developmental, developmental / developmental malformation / bone / short supernumerary.
Where [35] appears, read: systemic / in life observation / body weight / body weight + systemic / in life observation / water consumption / water consumption + ….
Where [36] appears, read: systemic / pathology microscopic / adrenal gland / pheochromocytoma nos + systemic / pathology microscopic / bone marrow / leukemia + ….
Setting [37] is: systemic / in life observation / body weight / body weight + systemic / in life observation / water consumption / water consumption.
The mark [38] stands for this setting: systemic / pathology microscopic / uterus / interstitial stromal tumor + systemic / in life observation / body weight / body weight + ….
Where [39] appears, read: group: developmental, developmental / developmental malformation / mouth / jaw / cleft palate + systemic / in life observation / body weight / fetal weight.
Where [40] appears, read: group: offspring, developmental / developmental landmark / preputial separation / preputial separation + systemic / in life observation / body weight / ….
[41] abbreviates: group: parental, systemic / in life observation / body weight / body weight + systemic / in life observation / body weight / body weight gain + systemic / in….
Where [42] appears, read: group: parental, systemic / in life observation / clinical signs / red or crusty deposits around eyes, ears, nose, or mouth + systemic / in life observation….
The mark [43] stands for this setting: group: reproductive, reproductive / offspring survival early / dead fetuses / dead fetuses.

The LOAEL is the lowest dose or exposure tested at which an adverse effect was seen. As a reminder, the NOAEL is the highest dose or exposure tested at which no adverse effect was seen. On to `CC(C)N(C(=O)SCC(Cl)=C(Cl)Cl)C(C)C` [Tri-allate], for which the lowest observed adverse effect level (LOAEL) with dog [1] (setting [17]) stood at 5 mg/kg/day; in the data set with rat [2] (setting [19]) it was 90 mg/kg/day; in the data set on rat [2] (setting [20]), 30 mg/kg/day; in the data set on rat [3] (group: offspring, systemic / in life observation / body weight / offspring (pup) weight + developmental / offspring survival late / [other] / [other]) it was 30 mg/kg/day; with rat [3] (setting [23]), 30 mg/kg/day; in the data set with rat [3] (setting [24]), 30 mg/kg/day. Besides, the NOAEL with dog [1] (setting [17]) is 1.5 mg/kg/day; with rat [2] (setting [19]), 30 mg/kg/day; with rat [2] (setting [21]), 10 mg/kg/day; with rat [3] (setting [22]) it was 7.5 mg/kg/day; in the data set on rat [3] (setting [23]), 7.5 mg/kg/day; with rat [3] (setting [24]), 7.5 mg/kg/day. Also, the LEL in the data set on dog [1] (setting [18]) stood at 1.5 mg/kg/day; in the data set with rat [2] (setting [19]) it was 90 mg/kg/day; in the data set with rat [2] (setting [21]) it was 30 mg/kg/day; in the data set on rat [3] (setting [22]), 2.5 mg/kg/day; in the data set on rat [3] (group: parental, systemic / in life observation / body weight / body weight + systemic / organ weight / ovary / relative to body weight + systemic / organ …), 7.5 mg/kg/day; with rat [3] (setting [24]), 30 mg/kg/day. The NEL in the data set with dog [1] (setting [18]) is less than 1.5 mg/kg/day; with rat [2] (setting [19]), 30 mg/kg/day; in the data set on rat [2] (setting [21]), 10 mg/kg/day; in the data set with rat [3] (setting [22]), less than 2.5 mg/kg/day; in the data set on rat [3] (setting [23]), 2.5 mg/kg/day; in the data set on rat [3] (setting [24]), 7.5 mg/kg/day.

Consider `CS(=O)(=O)c1cc(C(F)(F)F)ccc1C(=O)c1cnoc1C1CC1` [Isoxaflutole], for which the LEL amounted to 100 mg/kg/day in the data set on rat [4] (setting [25]); 500 mg/kg/day in the data set with rat [4] (setting [27]); 5 mg/kg/day in the data set with rabbit [5] (setting [28]); 100 mg/kg/day in the data set with rabbit [5] (setting [29]); 17.4 mg/kg/day in the data set on rat [6] (setting [30]); 17.4 mg/kg/day in the data set on rat [6] (setting [32]). Further, the figures for the LEL with dog [7], with mouse [8] and with rat [9] (setting [33]) were 453 mg/kg/day, 64.4 mg/kg/day and 20 mg/kg/day, respectively. Further, the LOAEL was determined as 100 mg/kg/day in the data set with rat [4] (setting [25]); 500 mg/kg/day in the data set with rat [4] (setting [27]); 5 mg/kg/day with rabbit [5] (setting [28]); 100 mg/kg/day in the data set on rabbit [5] (setting [29]); 17.4 mg/kg/day in the data set with rat [6] (setting [30]); 17.4 mg/kg/day in the data set on rat [6] (setting [32]). Further, the lowest observed adverse effect level (LOAEL) in the data set on dog [7] is 453 mg/kg/day; with mouse [8], 64.4 mg/kg/day; in the data set on rat [9] (setting [33]), 20 mg/kg/day. Besides, the NEL in the data set with rat [4] (setting [26]) was 10 mg/kg/day; with rat [4] (setting [27]) it was 100 mg/kg/day; with rabbit [5] (setting [28]), less than 5 mg/kg/day; in the data set with rabbit [5] (setting [29]), 20 mg/kg/day; in the data set with rat [6] (setting [31]), 1.76 mg/kg/day; with rat [6] (setting [32]), 1.76 mg/kg/day. The NEL in the data set with dog [7] came out at 44.8 mg/kg/day; with mouse [8] it was 3.2 mg/kg/day; with rat [9] (systemic / organ weight / liver / absolute + systemic / organ weight / liver / relative to body weight + systemic / pathology gross / liver…), 2 mg/kg/day. Also, the no observed adverse effect level (NOAEL) is 10 mg/kg/day in the data set with rat [4] (setting [26]); 100 mg/kg/day in the data set with rat [4] (setting [27]); less than 5 mg/kg/day with rabbit [5] (setting [28]); 20 mg/kg/day in the data set with rabbit [5] (setting [29]); 1.76 mg/kg/day with rat [6] (setting [31]); 1.76 mg/kg/day in the data set with rat [6] (setting [32]). Further, the NOAEL turned out to be 44.8 mg/kg/day in the data set with dog [7], 3.2 mg/kg/day in the data set with mouse [8] and 2 mg/kg/day with rat [9] (setting [33]).

For `CC#C[C@]1(O)CC[C@H]2[C@@H]3CCC4=CC(=O)CCC4=C3[C@@H](c3ccc(N(C)C)cc3)C[C@@]21C` [Mifepristone], in the data set with rat [10], the LEL was found to be 200 ppm, the LOAEL was greater than 600 ppm, the NEL is less than 200 ppm and the no-observed-adverse-effect level (NOAEL) was no less than 600 ppm.

As for `Cc1cnc(C2=NC(C)(C(C)C)C(=O)N2)c(C(=O)O)c1` (centres undefined) [Imazapic], in the data set on dog [11], the LEL was 137 mg/kg/day, the LOAEL was found to be 137 mg/kg/day, the NEL was less than 137 mg/kg/day and the NOAEL is less than 137 mg/kg/day. Further, in the data set with rabbit [12] (setting [34]), the LEL was 350 mg/kg/day, the LOAEL was greater than 700 mg/kg/day, the NEL stood at 175 mg/kg/day and the no observed adverse effect level (NOAEL) is no less than 700 mg/kg/day. Also, in the data set with rabbit [12] (setting [20]), the LEL turned out to be 500 mg/kg/day and the LOAEL turned out to be 500 mg/kg/day. For the same molecule, in the data set on rabbit [12] (setting [21]), the NEL stood at 350 mg/kg/day and the NOAEL was 350 mg/kg/day.

On to `Oc1ccccc1` [Phenol], for which the lowest observed adverse effect level (LOAEL) was greater than 250 mg/kg/day with rat [13] (setting [35]); greater than 750 mg/kg/day with mouse [14] (setting [38]); greater than 280 mg/kg/day in the data set with mouse [15] (setting [39]); greater than 280 mg/kg/day with mouse [15] (setting [27]); greater than 318 mg/kg/day with rat [16] (setting [40]); greater than 301 mg/kg/day in the data set with rat [16] (setting [41]). In addition, the LOAEL with rat [16] (setting [43]) was greater than 318 mg/kg/day. Besides, the NOAEL with rat [13] (setting [35]) was no less than 250 mg/kg/day; in the data set with mouse [14] (setting [38]) it was no less than 750 mg/kg/day; in the data set on mouse [15] (setting [39]), no less than 280 mg/kg/day; in the data set with mouse [15] (setting [27]), no less than 280 mg/kg/day; with rat [16] (setting [40]) it was no less than 318 mg/kg/day; with rat [16] (setting [41]) it was no less than 301 mg/kg/day. Further, the NOAEL in the data set with rat [16] (setting [43]) was no less than 318 mg/kg/day. For the same molecule, the LEL in the data set with rat [13] (setting [36]) is 125 mg/kg/day; in the data set on mouse [14] (setting [37]), 375 mg/kg/day; in the data set on mouse [15] (setting [39]), 280 mg/kg/day; with mouse [15] (setting [27]) it was 280 mg/kg/day; in the data set with rat [16] (setting [40]), 318 mg/kg/day; in the data set on rat [16] (setting [42]), 13.5 mg/kg/day. This molecule also had an LEL in the data set on rat [16] (setting [43]) of 318 mg/kg/day. The NEL with rat [13] (setting [36]) was less than 125 mg/kg/day; in the data set on mouse [14] (setting [37]) it was less than 375 mg/kg/day; with mouse [15] (setting [39]), 140 mg/kg/day; in the data set on mouse [15] (setting [27]) it was 140 mg/kg/day; in the data set with rat [16] (setting [40]) it was 69.8 mg/kg/day; in the data set with rat [16] (setting [42]), less than 13.5 mg/kg/day. Besides, the NEL in the data set with rat [16] (setting [43]) amounted to 69.8 mg/kg/day.
